Data taken from PubChem BioAssay AID651717 (Broad Institute, 2012).

tested on: mESC Bmi1-luciferase reporter, firefly/renilla ratio, 24 h; assay: compounds raising Bmi1 reporter signal – mouse embryonic stem cells, luciferase, cherry-pick, esBAF inhibitor project, dose response (AID 651717);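 also: luciferase knocked into Bmi1 locus with EF-1a renilla as cell number control; rising ratio signals esBAF inhibition which derepresses Bmi1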

First: CC1(C)C=Cc2cc(-c3coc4cc(O)cc(O)c4c3=O)cc(O)c2O1
Second: Oc1ccc(/C=N/Nc2nc(-c3cccnc3)nc3ccccc23)c(O)c1
The AC40 of the first is 2.3-fold lower: 4.93 µM for the first, 11.2 µM for the second.

First: CCOc1ccc2nc(NC(=O)CSc3nnc(-c4ccncc4)n3CC3CCCO3)sc2c1 (configuration not stated)
Second: Fc1ccc(Nc2nnc(-c3ccncc3)s2)cc1Cl
The AC40 of the first is 1.7-fold higher: 7.34 µM for the first, 4.42 µM for the second.

Going from `CC(C)(C)c1ccc(C(=O)c2cn[nH]c2-c2ccccc2O)cc1` to `CC(O)(c1ccccc1)c1nc(-c2cccc(C(=O)O)c2)cs1` (configuration not stated), the AC40 falls from 7.24 µM to 4.13 µM (1.8-fold).

Going from `COc1ccc(OCc2cc(C(=O)N(C)C(C)c3ccon3)no2)c(Cl)c1` (configuration not stated) to `CN(Cc1cccnc1)C(=O)c1cc(COc2ccc3c(c2)CCCC3)on1`, the AC40 falls from 23.4 µM to 0.9 µM (26-fold).

`Cc1ccnc(NC(=O)c2ccc3c(c2)C(=O)N(CC(C)C)C3=O)c1` and `COc1ccc(C(=O)Nc2ccc(Cl)cn2)cc1Cl` are within 1.5-fold of each other in AC40: 2.87 µM for the first, 2.38 µM for the second.

Compared with `NC(=O)C1CCN(c2nc(-c3cccc(N)c3)cs2)CC1`, `CC(C)(C)C(=O)N1CCN(c2nc3ccccc3s2)CC1` is 1.9-fold lower in AC40: 1.35 µM for the first, 0.702 µM for the second.

Going from `COc1ccc(-c2cc(C(=O)N3CCN(c4ccccc4O)CC3)c3ccccc3n2)cc1` to `COc1ccc(CNC(=O)c2ccc(-c3ccccc3)cc2)cc1`, the AC40 rises from 3.16 µM to 6.89 µM (2.2-fold).

`Clc1ccccc1C=NNc1ccccn1` and `Oc1ccccc1/C=N/N1CCN(c2ccccn2)CC1` are within 1.5-fold of each other in AC40: 2.27 µM for the first, 2.75 µM for the second.

Going from `Cc1cc2ncn(C(=O)N3CCC(C)CC3)c2cc1C` to `CC1CCc2sc(C(=O)NC3CCCCC3)cc2C1` (configuration not stated), the AC40 falls from 7.84 µM to 1.08 µM (7.3-fold).

First: CCn1c(=N)n(CC(=O)c2cccc(OC)c2)c2ccccc21
Second: COc1cccc(C(=O)c2cc3cc(Cl)ccc3[nH]2)c1
The AC40 of the first is 2.4-fold higher: 8.58 µM for the first, 3.55 µM for the second.

Compared with `Cc1csc(SCCN2C(=O)c3ccccc3C2=O)n1`, `Cc1cccc(NC(=O)c2c(O)c3ccccc3[nH]c2=O)c1` is 8.5-fold lower in AC40: 3.17 µM for the first, 0.371 µM for the second.

`CN(C)S(=O)(=O)c1cccc(C(=O)Nc2ccc(Cl)cn2)c1` and `CS(=O)(=O)N1CCc2cc(C(=O)Nc3ccc(Cl)cc3)ccc21` are within 1.5-fold of each other in AC40: 5.04 µM for the first, 6.5 µM for the second.

`O=C(CC(=O)c1ccccc1)Nc1ccccc1` and `c1ccc(Nc2ccc3ccccc3c2)cc1` are within 1.5-fold of each other in AC40: 3.94 µM for the first, 3.83 µM for the second.

Going from `c1ccc(Nc2nc3ccccc3n3nnnc23)cc1` to `S=C1NC(c2ccccc2)=NCN1c1ccccc1`, the AC40 rises from 7.2 µM to 17.5 µM (2.4-fold).

Compared with `OC(c1cccc(F)c1)c1ncc(-c2ccc3ccccc3c2)[nH]1` (configuration not stated), `O=C(N/N=C/c1cnc2ccccc2n1)c1cccc(F)c1` is 2-fold lower in AC40: 9.76 µM for the first, 4.89 µM for the second.

First: CO[C@@H]1CN(C)C(=O)c2cc(NC(=O)Nc3ccc4c(c3)OCO4)ccc2OC[C@@H](C)NC[C@@H]1C
Second: CCCNC(=O)Nc1ccc2c(c1)C(=O)N(C)C[C@H](OC)[C@@H](C)CN(Cc1ccc(-c3ccccn3)cc1)[C@H](C)CO2
The AC40 of the first is 1.7-fold higher: 3.02 µM for the first, 1.73 µM for the second.

First: Nc1cccc(N=[N+]([O-])c2cccc(N)c2)c1
Second: Cc1cccc(Oc2ccc(Cl)cc2N)c1
The AC40 of the first is 2.7-fold lower: 2.11 µM for the first, 5.77 µM for the second.

Going from `COC(=O)Cc1ccc(OCc2ccc(Cl)nc2)cc1` to `CC(=O)Oc1ccc(-c2csc(Nc3ccc(Cl)cn3)n2)cc1`, the AC40 falls from 6.74 µM to 2.19 µM (3.1-fold).

`COc1cccc(NC(=O)CN(C)C(=O)CNC(=O)c2sc3ccccc3c2Cl)c1` and `COC(=O)c1sccc1NC(=O)c1ccc(OC)cc1` are within 1.5-fold of each other in AC40: 4.99 µM for the first, 6.81 µM for the second.

Going from `CC(C)NC(=O)CCc1nnc(Cc2cccc(C(F)(F)F)c2)o1` to `Cc1cc(-c2nnc(-c3cccc(C(F)(F)F)c3)o2)no1`, the AC40 falls from 15.3 µM to 6.58 µM (2.3-fold).

First: Clc1ccc(N/N=C/c2cccnc2)cc1
Second: Cc1cccc(-c2noc(Cc3ccc(Cl)cc3)n2)c1
The AC40 of the first is 2.3-fold lower: 2.59 µM for the first, 5.96 µM for the second.

`O=C(CC1CC2CCC1C2)NC1CCCCCCC1` (configuration not stated) and `O=C(CN1CCCCCC1)Nc1ccc(Br)cc1Br` are within 1.5-fold of each other in AC40: 9.68 µM for the first, 8.51 µM for the second.

`COc1cccc(Nc2nc(-c3sc(C)nc3C)cs2)c1` and `Cc1nc(C)c(-c2csc(Nc3ccc(Cl)cn3)n2)s1` are within 1.5-fold of each other in AC40: 8.61 µM for the first, 8.77 µM for the second.

`CC(=O)c1cccc(OCc2cc(C(=O)NCCC3=CCCCC3)no2)c1` and `Cc1ccc(C(=O)NCC(=O)Nc2ccc3c(c2)CCC3)cc1` are within 1.5-fold of each other in AC40: 1.23 µM for the first, 1.44 µM for the second.

First: NCC(=O)c1ccccc1
Second: CN=Cc1cc(-c2ccccc2)sc1O
The AC40 of the first is 1.8-fold higher: 23 µM for the first, 12.9 µM for the second.

Going from `CCN(CC)S(=O)(=O)c1cccc(-c2cn3cc(C)ccc3n2)c1` to `Cc1cccc(-n2nnc(C(=O)Nc3ccc(F)cc3)c2N)c1`, the AC40 falls from 4 µM to 0.798 µM (5-fold).

First: C=CCn1cccc(C(=O)Nc2ccc(F)cc2)c1=O
Second: Nc1ccc(C(=O)OCc2nc3ccccc3[nH]2)cc1
The AC40 of the first is 2.6-fold lower: 7.32 µM for the first, 19.1 µM for the second.

Going from `CN(C)c1ccc(CN(C(=O)c2cc3ccccc3oc2=O)C2CCS(=O)(=O)C2)cc1` (configuration not stated) to `CCOc1ccc(N=C(/C(C(=O)C(=O)N2CCOCC2)=C(\O)c2ccccc2)c2ccccc2)cc1`, the AC40 rises from 3.62 µM to 11.2 µM (3.1-fold).

First: N#CC(c1ccccc1O)N1N=C(c2ccccc2)CC1c1ccccc1 (configuration not stated)
Second: O=C1CC(/C=C/c2ccncc2)=Nc2ccccc2N1
The AC40 of the first is 4.6-fold lower: 1.43 µM for the first, 6.57 µM for the second.

`CCC(C)c1ccc(NC(=O)C2CC2)cc1` (configuration not stated) and `Cc1cccc(NC(=O)C2C3CCCCC32)c1` (configuration not stated) are within 1.5-fold of each other in AC40: 5.85 µM for the first, 4.55 µM for the second.

First: Cc1ccc(Nc2ncnc3sc(C)c(C)c23)cc1
Second: COc1nc(Nc2ccc(C(C)C)cc2)nc(OC)n1
The AC40 of the first is 2.9-fold lower: 3.76 µM for the first, 10.8 µM for the second.
